This note sets out measurements from patent US20200032313A1 (SANYO CHEMICAL INDUSTRIES, LTD., priority 2017, published 2020).

Where two headings read alike, the source gives them in different places.

Test [1] concerns luciferase-expressing Saccharomyces cerevisiae. In kind it is cell-based. Particulars: S. cerevisiae, 8 hours. The procedure: Transformation was performed using Saccharomyces cerevisiae distributed by Biotechnology Center, National Institute of Technology and Evaluation, whereby luciferase-expressing microorganisms were produced. A vector pYES2 (Thermo Fisher Scientific) was digested with HindIII and XbaI, and a synthetic (synthesized by Thermo Fisher Scientific on commission) a factor-luciferase gene having a HindIII cut site at one end and an XbaI cut site at the other end was inserted into the vector. The microorganisms were transformed by the a factor-luciferase gene-inserted pYES2 according to the method described in an instruction manual of pYES2. The luciferase-expressing microorganisms were inoculated using a platinum loop into YPD broth (yeast extract 1 wt % (Difco), bacto peptone 2 wt % (Difco), and glucose 2 wt %) and were shake-cultured at 200 rpm at 30° C. for 15 hours. Then, the thus-obtained broth was resuspended in 125-ml YPD broth (containing 100 mM potassium hydrogen phosphate buffer; pH: 6) to a final optical density (hereinafter sometimes abbreviated as “OD”) of 0.1 OD/ml.
Further, the resuspended broth was continued to be shake-cultured at 1100 rpm at 30° C. for about 17 hours until OD was 20 to 30. When OD was 20 to 30, the broth was centrifuged (1500 g, 10 min), and resuspended in 125-ml galactose-inducing broth (the YPD broth containing 100 mM potassium phosphate buffer and also containing 2% galactose instead of glucose; pH: 6), followed by culturing at 1100 rpm at 30° C. for 2 hours.
Subsequently, the surfactant described in Table 1 was added to the broth in the amount (wt %) described in Table 1, and the broth was cultured at 1100 rpm at 30° C. for 8 hours. Subsequently, the broth was sampled for measuring the optical density (optical density at the end of culturing) and for measuring the secretion efficiency. Then, these samples were subjected to centrifugation using a centrifuge to separate bacteria and the supernatant from the broth. Then, the supernatant and the bacteria were collected.
The broth obtained in each of Examples 1 to 22 and Comparative Examples 1 and 2 was 10 to 1000-fold diluted in a 0.2 M Tris-HCl buffer (pH 7.4), and 20 μl of the dilution was mixed with 60 μl of a luciferin solution described below to obtain a sample. The emission intensity of the sample was measured using a luminometer under the following conditions, and the measured emission intensity was substituted into the following formula. The resulting value was regarded as the luciferase activity of the secreted and produced useful substance.
Luminometer: “Glomax Navigator” available from Promega Corporation Luciferin solution: product of New England Biolabs Japan Inc. Measurement temperature: 25° C. Detector: emission detector Detection wavelength: 350 to 700 nm
(Luciferase activity of secreted and produced useful substance)=(Emission intensity)×dilution factor/(optical density at the end of culturing)
The bacteria obtained in each of Examples 1 to 22 and Comparative Examples 1 and 2 were mixed with a 0.2 M Tris-HCl buffer (pH 7.4) in an amount of 200 μl that is equal to the amount of the removed supernatant, followed by centrifugation, whereby the bacteria were washed. The washed bacteria were resuspended in a 0.2 M Tris-HCl buffer (pH 7.4) in an amount of 200 μl that is equal to the amount of the washed supernatant, and 10 to 1000-fold diluted in a 0.2 M Tris-HCl buffer (pH 7.4). The resulting dilution was used as a sample for measuring the luciferase activity on the bacterial surface.
Then, 20 μl of the sample for measuring the luciferase activity on the bacterial surface was mixed with 60 μl of the luciferin solution to obtain a sample. The emission intensity of the sample was measured under the same conditions as for “Measurement of luciferase activity of secreted and produced useful substance”, and the measured emission intensity was substituted into the following formula. […]

Test [2] has as its system luciferase-expressing Pichia pastoris. In kind it is cell-based. Particulars: 8 hours culturing after addition. The procedure:
Transformation was performed using Pichia pastoris distributed by Biotechnology Center, National Institute of Technology and Evaluation, whereby luciferase-expressing microorganisms were produced. A vector pPICZ a (Thermo Fisher Scientific) was digested with XhoI and XbaI, and a synthetic (synthesized by Thermo Fisher Scientific on commission) luciferase gene having an XhoI cut site at one end and an XbaI cut site at the other end was inserted into the vector. The microorganisms were transformed by the luciferase gene-inserted pPICZ a according to the method described in an instruction manual of pPICZ a. The luciferase-expressing microorganisms were inoculated using a platinum loop into BMGY broth, and were shake-cultured at 200 rpm at 30° C. for 15 hours. Then, the thus-obtained broth was resuspended in 125-ml BMGY broth (yeast extract 1 wt % (Difco), bacto peptone 2 wt % (Difco), yeast nitrogen base w/o amino acid 1.34 wt % (Difco), glucose 2 wt %, and 100 mM potassium hydrogen phosphate; pH: 6.0) to a final OD of 0.1 OD/ml. Further, the resuspended broth was continued to be shake-cultured at 1100 rpm at 30° C. for about 17 hours until OD was 20 to 30. When OD was 20 to 30, the broth was centrifuged (1500 g, 10 min), and resuspended in 125-ml BMMY broth, followed by culturing at 1100 rpm at 30° C. for 2 hours.
Two hours later, the surfactant described in Table 2 was added to the broth in the amount (wt %) described in Table 2, and the broth was cultured at 1100 rpm at 30° C. for 8 hours. Subsequently, the broth was sampled for measuring the optical density (optical density at the end of culturing) and for measuring the secretion efficiency. Then, these samples were subjected to centrifugation using a centrifuge to separate bacteria and the supernatant from the broth. Then, the supernatant and the bacteria were collected.
The optical density of the broth containing the microorganisms collected by sampling was measured in a quartz cell (light path of 1 cm) using a spectrophotometer (UV-1700, Shimadzu Corporation).
The broth was centrifuged at 1500 rpm at 4° C. for 5 minutes, and the supernatant was discarded. The precipitate was resuspended in a saline solution in an amount equal to the amount of the sample solution, and was diluted in the saline solution to obtain an appropriate absorbance (0.1 to 0.8). Then, the absorbance at 600 nm was measured. The optical density of the broth was calculated using the following mathematical formula (1).
Broth optical density(OD)=(Absorbance of diluted broth at 600 nm)×dilution factor of broth (Mathematical formula 1)

Setting [3] is: surfactant 0.03 wt % of broth, Examples 2, 5-11.
Setting [4] is: surfactant 0.03 wt % of broth, Examples 13, 16-22.

As for `CCCCCCCCCCCCNCCC(=O)O`, the “Secretion efficiency (%)” value in test [1] (surfactant 0.003 wt % of broth, Example 1) turned out to be 56%; in test [1] (setting [3]), 61%; in test [1] (surfactant 0.3 wt % of broth, Example 3), 65%; in test [1] (surfactant 3 wt % of broth, Example 4) it was 75%. The “Optical density (OD) of broth at the end of culturing” value (“Optical density (OD) of broth” for short) in test [2] (surfactant 0.003 wt % of broth, Example 12) was determined as 22.2 OD; in test [2] (setting [4]) it was 21.1 OD; in test [2] (surfactant 0.3 wt % of broth, Example 14), 18.1 OD; in test [2] (surfactant 3 wt % of broth, Example 15) it was 10.5 OD.

Regarding `CCCCCCCCCCCC[N+](C)(C)C.[Cl-]` [Surfactant (A2-1), lauryl trimethyl ammonium chloride], in test [1] (setting [3]), the “Secretion efficiency (%)” value is recorded as 52%. In addition, in test [2] (setting [4]), the “Optical density (OD) of broth” value stood at 15.8 OD.

Consider `CCCCCCCCCCCC[N+](C)(C)CCCS(=O)(=O)O.[OH-]` [Surfactant (A3-3), dodecyldimethyl(3-sulfopropyl)ammonium hydroxide], for which the “Secretion efficiency (%)” value in test [1] (setting [3]) is reported as 61%. Besides, the “Optical density (OD) of broth” value in test [2] (setting [4]) is given as 27.6 OD.

For the compound `CCCCCCCCCCCCCCCCOP(=O)([O-])OCC[N+](C)(C)C` [Surfactant (A3-4), miltefosine, reference compound], the “Secretion efficiency (%)” value in test [1] (setting [3]) is recorded as 59%. For the same compound, the “Optical density (OD) of broth” value in test [2] (setting [4]) stood at 30.7 OD.

For the compound `CCCCCCCCCCCC[N+](C)(C)CC(=O)[O-]` [Surfactant (A3-5), betaine lauryldimethylaminoacetate], in test [1] (setting [3]), the “Secretion efficiency (%)” value is listed as 56%. The “Optical density (OD) of broth” value in test [2] (setting [4]) amounted to 26.1 OD.

For the compound “sodium (2-dodecylamino)ethanesulfonate [Surfactant (A3-1)]”, in test [1] (setting [3]), the “Secretion efficiency (%)” value is reported as 60%. The “Optical density (OD) of broth” value in test [2] (setting [4]) is 27.0 OD.

Regarding “sodium polyoxyethylene (average 2.5 mol adduct) lauryl ether sulfate [Surfactant (A1-1)]”, the “Secretion efficiency (%)” value in test [1] (setting [3]) is on record as 66%. Moreover, in test [2] (setting [4]), the “Optical density (OD) of broth” value worked out at 26.8 OD.

Take “sodium polyoxyethylene (average 3 mol adduct) lauryl ether acetate [Surfactant (A1-2)]”: in test [1] (setting [3]), the “Secretion efficiency (%)” value is 58%. Further, in test [2] (setting [4]), the “Optical density (OD) of broth” value is given as 29.1 OD.
